Experimental data reported in patent US20220000117A1, “METHOD FOR CONTROLLING DISEASES IN SMALL GRAIN CEREALS, SEED OF SMALL GRAIN CEREALS, AND METHOD FOR SUPPRESSING LODGING DAMAGE IN SMALL GRAIN CEREALS” (KUMIAI CHEMICAL INDUSTRY CO., LTD., priority 2019, published 2022).

Experiments:
powdery mildew = assay: Test Example 9: control test of wheat powdery mildew, cup in greenhouse, inoculated, Norin No. 61 (Tables 10 to 14); type: in vivo, Blumeria graminis; parameters: key to Degree of Disease Occurrence: Σ(index×leaves)/(4×leaves investigated)×100; 0 = no disease, 100 = max
Protocol: (§1) Degree of Disease Occurrence=Σ(Index×Number of Leaves of Index)/(4×Number of Investigated Leaves)×100 (1)
Seed of wheat (variety: Norin No. 61) was used, and 100 ml of suspension waters each containing the compound shown in Table 10 at an amount shown in […] (synthesis was performed in accordance with a known method, a solution dissolved in DMSO or formulated 10% wettable powder was used) were prepared. The seed having a mass of 1 kg of wheat was mixed into the suspension water with a chemical treated amount shown in Table 10, and air-dried, and then, 5 seeds were sown in a plastic cup having a diameter of 6 cm containing river sand and managed in a greenhouse. In Comparative Examples, 20 ml of the suspension water of an active ingredient, which had been adjusted to have a concentration shown in Table 10, was sprayed in a frame of 45 cm×45 cm in which a pot of wheat seedlings was placed (corresponding to 1000 L/ha) 14 days after seeding. On day 14 after seeding, conidiospores of powdery mildew were sifted over leaves of wheat seedlings and inoculated onto the leaves (after the sprayed liquid was dried in the case of Comparative Examples), a lesion area ratio of powdery mildew in a first leaf was investigated 21 days after seeding according to the criteria in Table 1, and the degree of disease occurrence was calculated by the above calculation formula (1).

septoria leaf blotch = assay: Test Example 10: control test of septoria leaf blotch of wheat, cup in greenhouse, inoculated, variety ARKEOS (Tables 15 to 19); type: in vivo, Septoria tritici
Protocol: as §1
Seed of wheat (variety: ARKEOS) was used, and 100 ml of suspension waters each containing the compound shown in Table 15 at an amount shown in Table 15 (synthesis was performed in accordance with a known method, a liquid dissolved in a small amount of DMSO or formulated 10% wettable powder was used) were prepared. Seed having a mass of 1 kg was mixed into the suspension water with a rate shown in Examples of Table 15, and air-dried, and then, 5 seeds were sown in a plastic cup having a diameter of 6 cm containing mixed soil of river sand and horticultural soil and managed in a greenhouse. In Comparative Examples, 20 ml of suspension water of an active ingredient, which had been adjusted to have a concentration shown in Table 15 to 19, was sprayed in a frame of 45 cm×45 cm in which a pot of wheat seedlings was placed (corresponding to 1000 L/ha) 14 days after seeding. On day 14 after seeding, a spore suspension in which conidiospores of septoria leaf blotch are suspended was sprayed and inoculated on leaves of wheat seedlings (after the sprayed liquid was dried in the case of Comparative Examples), a lesion area ratio of septoria leaf blotch in a second leaf was investigated approximately 35 days after seeding according to the criteria in Table 1, and the degree of disease occurrence was calculated by the above calculation formula (1).

[1] = Table 14, Foliage Treatment, spray 10 ppm suspension water (corresponding to 10 g/ha) 14 days after seeding, untreated 70.0
[2] = Table 14, Foliage Treatment, spray 10 ppm suspension water (corresponding to 10 g/ha) 14 days after seeding, untreated 100.0
[3] = Table 14, Foliage Treatment, spray 100 ppm suspension water (corresponding to 100 g/ha) 14 days after seeding, untreated 70.0
[4] = Table 14, Foliage Treatment, spray 100 ppm suspension water (corresponding to 100 g/ha) 14 days after seeding, untreated 100.0
[5] = Table 14, Seed Treatment, 0.1 g/Seed 1 kg (corresponding to 10 g/ha), first leaf, 21 days after seeding, untreated 70.0
[6] = Table 14, Seed Treatment, 0.1 g/Seed 1 kg (corresponding to 10 g/ha), first leaf, 21 days after seeding, untreated 100.0
[7] = Table 14, Seed Treatment, 1 g/Seed 1 kg (corresponding to 100 g/ha), first leaf, 21 days after seeding, untreated 70.0
[8] = Table 14, Seed Treatment, 1 g/Seed 1 kg (corresponding to 100 g/ha), first leaf, 21 days after seeding, untreated 100.0
[9] = Table 12 run (different day), Foliage Treatment, spray 5 ppm (5 g/ha)
[10] = Table 12 run (different day), Foliage Treatment, spray 10 ppm (10 g/ha)
[11] = Table 12 run (different day), Foliage Treatment, spray 50 ppm (50 g/ha)
[12] = Table 12 run (different day), Seed Treatment 0.05 g/Seed 1 kg (5 g/ha)
[13] = Table 12 run (different day), Seed Treatment 0.1 g/Seed 1 kg (10 g/ha)
[14] = Table 12 run (different day), Seed Treatment 0.5 g/Seed 1 kg (50 g/ha)
[15] = Table 14, Foliage Treatment, spray 50 ppm suspension water (corresponding to 50 g/ha) 14 days after seeding, untreated 70.0
[16] = Table 14, Foliage Treatment, spray 50 ppm suspension water (corresponding to 50 g/ha) 14 days after seeding, untreated 100.0
[17] = Table 14, Seed Treatment, 0.5 g/Seed 1 kg (corresponding to 50 g/ha), first leaf, 21 days after seeding, untreated 70.0
[18] = Table 14, Seed Treatment, 0.5 g/Seed 1 kg (corresponding to 50 g/ha), first leaf, 21 days after seeding, untreated 100.0
[19] = Table 18, Foliage Treatment, spray 5 ppm (5 g/ha)
[20] = Table 18, Foliage Treatment, spray 10 ppm (10 g/ha)
[21] = Table 18, Seed Treatment 0.05 g/Seed 1 kg (5 g/ha)
[22] = Table 18, Seed Treatment 0.1 g/Seed 1 kg (10 g/ha)
[23] = Table 18, Foliage Treatment, spray 50 ppm (50 g/ha)
[24] = Table 18, Seed Treatment 0.5 g/Seed 1 kg (50 g/ha)

`N=C(OCc1ccccc1)c1snc(Cl)c1Cl` [Compound (12)] was tested, and the “Degree of Disease Occurrence” value (powdery mildew; [1]) was 56.9, the “Disease Leaf Rate (%)” value (powdery mildew; [2]) was 94.4% and the “Degree of Disease Occurrence” value (powdery mildew; [3]) was 47.9. For the same compound, the “Disease Leaf Rate (%)” value (powdery mildew; [4]) was 93.3%, the “Degree of Disease Occurrence” value (powdery mildew; [5]) was 21.3 and the “Disease Leaf Rate (%)” value (powdery mildew; [6]) was 75.8%. The “Degree of Disease Occurrence” value (powdery mildew; [7]) was 34.1, the “Disease Leaf Rate (%)” value (powdery mildew; [8]) was 87.5% and the “Degree of Disease Occurrence” value (septoria leaf blotch; Table 19, Foliage Treatment, spray 10 ppm suspension water (corresponding to 10 g/ha) 14 days after seeding, untreated 45.0) was 53.3. The “Disease Leaf Rate (%)” value (septoria leaf blotch; Table 19, Foliage Treatment, spray 10 ppm suspension water (corresponding to 10 g/ha) 14 days after seeding, untreated 98.0) was 99.3%, the “Degree of Disease Occurrence” value (septoria leaf blotch; Table 19, Foliage Treatment, spray 50 ppm suspension water (corresponding to 50 g/ha) 14 days after seeding, untreated 45.0) was 39.2 and the “Disease Leaf Rate (%)” value (septoria leaf blotch; Table 19, Foliage Treatment, spray 50 ppm suspension water (corresponding to 50 g/ha) 14 days after seeding, untreated 98.0) was 93.6%. For the same compound, the “Degree of Disease Occurrence” value (septoria leaf blotch; Table 19, Seed Treatment, 0.1 g/Seed 1 kg (corresponding to 10 g/ha), untreated 45.0) was 26.3, the “Disease Leaf Rate (%)” value (septoria leaf blotch; Table 19, Seed Treatment, 0.1 g/Seed 1 kg (corresponding to 10 g/ha), untreated 98.0) was 75.0% and the “Degree of Disease Occurrence” value (septoria leaf blotch; Table 19, Seed Treatment, 0.5 g/Seed 1 kg (corresponding to 50 g/ha), untreated 45.0) was 10.3. For the same compound, the “Disease Leaf Rate (%)” value (septoria leaf blotch; Table 19, Seed Treatment, 0.5 g/Seed 1 kg (corresponding to 50 g/ha), untreated 98.0) was 41.3%.
With `N=C(N)c1snc(Cl)c1Cl` [Compound (13)] the “Degree of Disease Occurrence” value (powdery mildew; [9]) was 60.0, the “Disease Leaf Rate (%)” value (powdery mildew; [9]) was 100.0% and the “Degree of Disease Occurrence” value (powdery mildew; [10]) was 36.7. The “Disease Leaf Rate (%)” value (powdery mildew; [10]) was 53.3%, the “Degree of Disease Occurrence” value (powdery mildew; [11]) was 21.7 and the “Disease Leaf Rate (%)” value (powdery mildew; [11]) was 53.3%. For the same compound, the “Degree of Disease Occurrence” value (powdery mildew; [12]) was 19.4, the “Disease Leaf Rate (%)” value (powdery mildew; [12]) was 53.3% and the “Degree of Disease Occurrence” value (powdery mildew; [13]) was 7.5. The “Disease Leaf Rate (%)” value (powdery mildew; [13]) was 20.0%, the “Degree of Disease Occurrence” value (powdery mildew; [14]) was 9.7 and the “Disease Leaf Rate (%)” value (powdery mildew; [14]) was 38.9%. For the same compound, the “Degree of Disease Occurrence” value (powdery mildew; [1]) was 35.6, the “Disease Leaf Rate (%)” value (powdery mildew; [2]) was 76.7% and the “Degree of Disease Occurrence” value (powdery mildew; [15]) was 31.3. For the same compound, the “Disease Leaf Rate (%)” value (powdery mildew; [16]) was 83.3%, the “Degree of Disease Occurrence” value (powdery mildew; [5]) was 17.2 and the “Disease Leaf Rate (%)” value (powdery mildew; [6]) was 68.8%. The “Degree of Disease Occurrence” value (powdery mildew; [17]) was 13.9, the “Disease Leaf Rate (%)” value (powdery mildew; [18]) was 44.4% and the “Degree of Disease Occurrence” value (septoria leaf blotch; [19]) was 60.0. The “Disease Leaf Rate (%)” value (septoria leaf blotch; [19]) was 100.0%, the “Degree of Disease Occurrence” value (septoria leaf blotch; [20]) was 68.3 and the “Disease Leaf Rate (%)” value (septoria leaf blotch; [20]) was 100.0%. For the same compound, the “Degree of Disease Occurrence” value (septoria leaf blotch; [21]) was 28.8, the “Disease Leaf Rate (%)” value (septoria leaf blotch; [21]) was 95.0% and the “Degree of Disease Occurrence” value (septoria leaf blotch; [22]) was 42.5. The “Disease Leaf Rate (%)” value (septoria leaf blotch; [22]) was 100.0%.
With `N=C(N)c1snc(Cl)c1Cl` [Compound (14)] the “Degree of Disease Occurrence” value (powdery mildew; [15]) was 18.3, the “Disease Leaf Rate (%)” value (powdery mildew; [16]) was 61.1% and the “Degree of Disease Occurrence” value (powdery mildew; [3]) was 14.4. For the same compound, the “Disease Leaf Rate (%)” value (powdery mildew; [4]) was 44.4%, the “Degree of Disease Occurrence” value (powdery mildew; [17]) was 7.8 and the “Disease Leaf Rate (%)” value (powdery mildew; [18]) was 25.0%. The “Degree of Disease Occurrence” value (powdery mildew; [7]) was 11.3, the “Disease Leaf Rate (%)” value (powdery mildew; [8]) was 40.0% and the “Degree of Disease Occurrence” value (septoria leaf blotch; [23]) was 48.3. The “Disease Leaf Rate (%)” value (septoria leaf blotch; [23]) was 100.0%, the “Degree of Disease Occurrence” value (septoria leaf blotch; [24]) was 42.5 and the “Disease Leaf Rate (%)” value (septoria leaf blotch; [24]) was 90.0%.
